Laboratory results published in US20110152227A1, “DEUTERIUM LABELLED DERIVATIVES OF 3-(2-HYDROXY-5-METHYPHENYL)-N,N-DIISOPROPYL-3-PHENYLPROPYLAMINE AND METHODS OF USE THEREOF” (CONCERT PHARMACEUTICALS INC., priority 2008, published 2011).
Read-outs that look alike come from different tables or passages of the source.

Assay: Evaluation of metabolic stability in human liver microsomes
Type: in vitro ADME
Details: for half-life at 1 μM: human, human liver microsomes; for half-life in human liver microsomes as compared to tolterodine: result in words, versus tolterodine
Experimental: Materials: Human liver microsomes (20 mg/mL) were obtained from Xenotech, LLC (Lenexa, Kans.). β-nicotinamide adenine dinucleotide phosphate, reduced form (NADPH), magnesium chloride (MgCl2), and dimethyl sulfoxide (DMSO) were purchased from Sigma-Aldrich.
The 7.5 mM stock solutions were diluted to 50 μM in acetonitrile (ACN). The 20 mg/mL human liver microsomes were diluted to 0.625 mg/mL in 0.1 M potassium phosphate buffer, pH 7.4, containing 3 mM MgCl2. The diluted microsomes were added to wells of a 96-well deep-well polypropylene plate in duplicate. Ten μL of one of the […] test compound solutions was added to the microsomes and the mixture was pre-warmed for 10 minutes. Reactions were initiated by addition of pre-warmed NADPH solution. The final reaction volume was 0.5 mL and contained 0.5 mg/mL human liver microsomes, 1 μM test compound, and 2 mM NADPH in 0.1 M potassium phosphate buffer, pH 7.4, and 3 mM MgCl2. The reaction mixtures were incubated at 37° C., and 50 μL aliquots were removed at 0, 5, 10, 20, and 30 minutes and added to shallow-well 96-well plates which contained 50 μL of ice-cold ACN with internal standard to stop the reactions. The plates were stored at 4° C. for 20 minutes after which 100 μL of water was added to the wells of the plate before centrifugation to pellet precipitated proteins. Supernatants were transferred to another 96-well plate and analyzed for amounts of parent remaining by LC-MS/MS using an Applied Bio-systems API 4000 mass spectrometer. 7-ethoxy coumarin (1 μM) was used as a positive control. The experiment was repeated as second time to confirm the results.
Data analysis: The in vitro t1/2s for test compounds were calculated from the slopes of the linear regression of % parent remaining (ln) vs incubation time relationship using the following formula: in vitro t1/2=0.693/k, where k=−[slope of linear regression of % parent remaining (ln) vs incubation time]. Data analysis was performed using Microsoft Excel Software.

[1] = pH 7.4, average of Experiment 1 and 2, human liver microsomes, read-out: Ave t1/2
[2] = pH 7.4, human liver microsomes 0.5 mg/mL, 1 μM test compound, 2 mM NADPH, 37° C., 0-30 minutes, Experiment 1, read-out: t1/2 (minutes) Experiment 1
[3] = pH 7.4, human liver microsomes 0.5 mg/mL, 1 μM test compound, 2 mM NADPH, 37° C., 0-30 minutes, Experiment 2 (repeat), read-out: t1/2 (minutes) Experiment 2

Row | Compound | half-life at 1 μM [1] [min] | half-life at 1 μM [2] [min] | half-life at 1 μM [3] [min] | half-life in human liver microsomes as compared to tolterodine
1 | [2H]C([2H])([2H])c1ccc(O)c([C@H](CCN(C([2H])(C([2H])([2H])[2H])C([2H])([2H])[2H])C([2H])(C([2H])([2H])[2H])C([2H])([2H])[2H])c2ccccc2)c1 [Compound 100] | 25.8 | 23.5 | 28 | substantially increased half-life
2 | [2H]C([2H])([2H])C([2H])(N(CC[C@H](c1ccccc1)c1cc(C)ccc1O)C([2H])(C([2H])([2H])[2H])C([2H])([2H])[2H])C([2H])([2H])[2H] [Compound 106, (R)-2-(3-(Di(isopropyl-d7)amino)-1-phenylpropyl)-4-methylphenol] | 15.1 | 14.6 | 15.6 | –
3 | [2H]C([2H])([2H])c1ccc(O)c([C@H](CCN(C(C)C)C(C)C)c2ccccc2)c1 [Compound 112] | 26.6 | 24.3 | 28.9 | substantially increased half-life
4 | Cc1ccc(O)c(C(CCN(C(C)C)C(C)C)c2ccccc2)c1 (centres unmarked) [Tolterodine, 3-(2-hydroxy-5-methylphenyl)-N,N-diisopropyl-3-phenylpropylamine, reference compound] | 13.8 | 13.4 | 14.2 | –
